Data: patent US20230085307A1, “PYRIDAZINONE COMPOUND AND HERBICIDE” (NISSAN CHEMICAL CORPORATION, priority 2019, published 2023)

These compounds were tested on velvetleaf (assay: Test Example 4: herbicidal effect by soil treatment (Table 19, symbol M)). Conditions: amount of applied herbicide 320 g/ha.
Format: in vivo, velvetleaf (Abutilon theophrasti)
Procedure, shortened: (§1)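 Pre-emergence style soil spray: seeds under ~1.5 cm sterilized diluvial soil received a uniform coat of emulsion diluted to the predetermined herbicide amount. Greenhouse 25–30° C; readout at week three on previously defined criteria.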

Compound	herbicidal effect, M: velvetleaf
CCCC(=O)Oc1c(C)nn(C)c(=O)c1-c1c(-c2ccc(F)cc2)sc2cc(F)ccc12 [3-002]	0 (Herbicidal rate of 5% or less (almost no effect))
COc1ccccc1-c1sc2cc(F)ccc2c1-c1c(O)c(C)nn(C)c1=O [3-003]	3 (Herbicidal rate of 40% or more and less than 70%)
CCOc1ccccc1-c1sc2cc(F)ccc2c1-c1c(O)c(C)nn(C)c1=O [3-006]	4 (Herbicidal rate of 70% or more and less than 90%)

Each compound was assayed on rice flat sedge (assay: Test Example 3: herbicidal effect by foliage application, Wagner pot (Table 18, symbol E)). Conditions: amount of applied herbicide 320 g/ha.
Format: in vivo, rice flat sedge (Cyperus iria)
Procedure, shortened: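 Plants were sown in alluvial soil held under 0.1–0.5 cm standing water and grown 14 days in a greenhouse at 25–30 °C. An emulsifiable formulation, water-diluted to the set dose, was then sprayed onto the foliage, and effects were scored three weeks later using previously defined criteria.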

Compound	herbicidal effect on E: rice flat sedge
CCCC(=O)Oc1c(C)nn(C)c(=O)c1-c1c(-c2ccc(F)cc2)sc2cc(F)ccc12 [3-002]	3 (Herbicidal rate of 40% or more and less than 70%)
COc1ccccc1-c1sc2cc(F)ccc2c1-c1c(O)c(C)nn(C)c1=O [3-003]	5 (Herbicidal rate of 90% or more (almost completely withered))
CCOc1ccccc1-c1sc2cc(F)ccc2c1-c1c(O)c(C)nn(C)c1=O [3-006]	5 (Herbicidal rate of 90% or more (almost completely withered))

The compounds below were run on Japanese bulrush (assay: Test Example 2: herbicidal activity, application during weed generation under submerged conditions (Table 17, symbol B)). Conditions: AAH 320 g/ha; application during weed generation, submerged conditions.
Format: in vivo, Japanese bulrush (Schoenoplectus juncoides)
Procedure, shortened: (§2)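 Wagner pot, alluvial soil, 4 cm flood; mixed sowing of all species; greenhouse 25° C.–30° C. Emulsifiable formulation, water-diluted to predetermined dose, applied to paddy water at 1–2 leaf stage. Effect rated at 3 wk using the earlier test's scoring criteria.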

Compound	herbicidal effect rating, B: Japanese bulrush
CCCC(=O)Oc1c(C)nn(C)c(=O)c1-c1c(-c2ccc(F)cc2)sc2cc(F)ccc12 [3-002]	3 (Herbicidal rate of 40% or more and less than 70%)
COc1ccccc1-c1sc2cc(F)ccc2c1-c1c(O)c(C)nn(C)c1=O [3-003]	3 (Herbicidal rate of 40% or more and less than 70%)
CCOc1ccccc1-c1sc2cc(F)ccc2c1-c1c(O)c(C)nn(C)c1=O [3-006]	4 (Herbicidal rate of 70% or more and less than 90%)

These compounds were tested on Italian ryegrass (assay: Test Example 4: herbicidal effect by soil treatment (Table 19, symbol K)). Conditions: amount of applied herbicide 320 g/ha.
Format: in vivo, Italian ryegrass (Lolium multiflorum)
Procedure, shortened: as §1

Compound	herbicidal effect, K: Italian ryegrass
CCCC(=O)Oc1c(C)nn(C)c(=O)c1-c1c(-c2ccc(F)cc2)sc2cc(F)ccc12 [3-002]	4 (Herbicidal rate of 70% or more and less than 90%)
COc1ccccc1-c1sc2cc(F)ccc2c1-c1c(O)c(C)nn(C)c1=O [3-003]	4 (Herbicidal rate of 70% or more and less than 90%)
CCOc1ccccc1-c1sc2cc(F)ccc2c1-c1c(O)c(C)nn(C)c1=O [3-006]	2 (Herbicidal rate of 20% or more and less than 40%)

What follows are compounds tested on wild oat (assay: Test Example 4: herbicidal effect by soil treatment (Table 19, symbol I)). Conditions: amount of applied herbicide 320 g/ha.
Format: in vivo, wild oat (Avena fatua)
Procedure, shortened: as §1

Compound	herbicidal effect, I: wild oat
CCCC(=O)Oc1c(C)nn(C)c(=O)c1-c1c(-c2ccc(F)cc2)sc2cc(F)ccc12 [3-002]	3 (Herbicidal rate of 40% or more and less than 70%)
COc1ccccc1-c1sc2cc(F)ccc2c1-c1c(O)c(C)nn(C)c1=O [3-003]	4 (Herbicidal rate of 70% or more and less than 90%)
CCOc1ccccc1-c1sc2cc(F)ccc2c1-c1c(O)c(C)nn(C)c1=O [3-006]	4 (Herbicidal rate of 70% or more and less than 90%)

The compounds below were run on lambsquarters (assay: Test Example 4: herbicidal effect by soil treatment (Table 19, symbol O)). Conditions: amount of applied herbicide 320 g/ha.
Format: in vivo, lambsquarters (Chenopodium album)
Procedure, shortened: as §1

Compound	herbicidal effect, O: lambsquarters
CCCC(=O)Oc1c(C)nn(C)c(=O)c1-c1c(-c2ccc(F)cc2)sc2cc(F)ccc12 [3-002]	4 (Herbicidal rate of 70% or more and less than 90%)
COc1ccccc1-c1sc2cc(F)ccc2c1-c1c(O)c(C)nn(C)c1=O [3-003]	4 (Herbicidal rate of 70% or more and less than 90%)
CCOc1ccccc1-c1sc2cc(F)ccc2c1-c1c(O)c(C)nn(C)c1=O [3-006]	5 (Herbicidal rate of 90% or more (almost completely withered))

Each compound was assayed on wild oat (assay: Test Example 5: herbicidal effect by foliage application, plastic box (Table 20, symbol I)). Conditions: foliage application, 320 g/ha, three weeks after application.
Format: in vivo, wild oat (Avena fatua)
Procedure, shortened: (§3)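 Plants were sown into sterilized diluvial soil under about 1.5 cm cover and kept in a greenhouse at 25° C. to 30° C. Fourteen days on, foliage received an even spray of the diluted emulsion. Herbicidal or crop effect was judged three weeks afterwards.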

Compound	I: wild oat, herbicidal effect grade
CCCC(=O)Oc1c(C)nn(C)c(=O)c1-c1c(-c2ccc(F)cc2)sc2cc(F)ccc12 [3-002]	4 (Herbicidal rate of 70% or more and less than 90%)
COc1ccccc1-c1sc2cc(F)ccc2c1-c1c(O)c(C)nn(C)c1=O [3-003]	5 (Herbicidal rate of 90% or more (almost completely withered))
CCOc1ccccc1-c1sc2cc(F)ccc2c1-c1c(O)c(C)nn(C)c1=O [3-006]	5 (Herbicidal rate of 90% or more (almost completely withered))

Each compound was assayed on Italian ryegrass (assay: Test Example 5: herbicidal effect by foliage application, plastic box (Table 20, symbol K)). Conditions: foliage application, 320 g/ha, three weeks after application.
Format: in vivo, Italian ryegrass (Lolium multiflorum)
Procedure, shortened: as §3

Compound	K: Italian ryegrass, herbicidal effect grade
CCCC(=O)Oc1c(C)nn(C)c(=O)c1-c1c(-c2ccc(F)cc2)sc2cc(F)ccc12 [3-002]	4 (Herbicidal rate of 70% or more and less than 90%)
COc1ccccc1-c1sc2cc(F)ccc2c1-c1c(O)c(C)nn(C)c1=O [3-003]	5 (Herbicidal rate of 90% or more (almost completely withered))
CCOc1ccccc1-c1sc2cc(F)ccc2c1-c1c(O)c(C)nn(C)c1=O [3-006]	5 (Herbicidal rate of 90% or more (almost completely withered))

Each compound was assayed on lambsquarters (assay: Test Example 5: herbicidal effect by foliage application, plastic box (Table 20, symbol O)). Conditions: foliage application, 320 g/ha, three weeks after application.
Format: in vivo, lambsquarters (Chenopodium album)
Procedure, shortened: as §3

Compound	O: lambsquarters, herbicidal effect grade
CCCC(=O)Oc1c(C)nn(C)c(=O)c1-c1c(-c2ccc(F)cc2)sc2cc(F)ccc12 [3-002]	3 (Herbicidal rate of 40% or more and less than 70%)
COc1ccccc1-c1sc2cc(F)ccc2c1-c1c(O)c(C)nn(C)c1=O [3-003]	4 (Herbicidal rate of 70% or more and less than 90%)
CCOc1ccccc1-c1sc2cc(F)ccc2c1-c1c(O)c(C)nn(C)c1=O [3-006]	4 (Herbicidal rate of 70% or more and less than 90%)

These compounds were tested on late watergrass (assay: Test Example 2: herbicidal activity, application during weed generation under submerged conditions (Table 17, symbol A)). Conditions: AAH 320 g/ha; application during weed generation, submerged conditions.
Format: in vivo, late watergrass (Echinochloa oryzicola)
Procedure, shortened: as §2

Compound	herbicidal effect rating, A: late watergrass
CCCC(=O)Oc1c(C)nn(C)c(=O)c1-c1c(-c2ccc(F)cc2)sc2cc(F)ccc12 [3-002]	3 (Herbicidal rate of 40% or more and less than 70%)
COc1ccccc1-c1sc2cc(F)ccc2c1-c1c(O)c(C)nn(C)c1=O [3-003]	2 (Herbicidal rate of 20% or more and less than 40%)
CCOc1ccccc1-c1sc2cc(F)ccc2c1-c1c(O)c(C)nn(C)c1=O [3-006]	3 (Herbicidal rate of 40% or more and less than 70%)

These compounds were tested on chickweed (assay: Test Example 5: herbicidal effect by foliage application, plastic box (Table 20, symbol P)). Conditions: foliage application, 320 g/ha, three weeks after application.
Format: in vivo, common chickweed (Stellaria media)
Procedure, shortened: as §3

Compound	P: chickweed, herbicidal effect grade
CCCC(=O)Oc1c(C)nn(C)c(=O)c1-c1c(-c2ccc(F)cc2)sc2cc(F)ccc12 [3-002]	5 (Herbicidal rate of 90% or more (almost completely withered))
COc1ccccc1-c1sc2cc(F)ccc2c1-c1c(O)c(C)nn(C)c1=O [3-003]	5 (Herbicidal rate of 90% or more (almost completely withered))
CCOc1ccccc1-c1sc2cc(F)ccc2c1-c1c(O)c(C)nn(C)c1=O [3-006]	5 (Herbicidal rate of 90% or more (almost completely withered))

Each compound was assayed on velvetleaf (assay: Test Example 5: herbicidal effect by foliage application, plastic box (Table 20, symbol M)). Conditions: foliage application, 320 g/ha, three weeks after application.
Format: in vivo, velvetleaf (Abutilon theophrasti)
Procedure, shortened: as §3

Compound	M: velvetleaf, herbicidal effect grade
CCCC(=O)Oc1c(C)nn(C)c(=O)c1-c1c(-c2ccc(F)cc2)sc2cc(F)ccc12 [3-002]	5 (Herbicidal rate of 90% or more (almost completely withered))
COc1ccccc1-c1sc2cc(F)ccc2c1-c1c(O)c(C)nn(C)c1=O [3-003]	5 (Herbicidal rate of 90% or more (almost completely withered))
CCOc1ccccc1-c1sc2cc(F)ccc2c1-c1c(O)c(C)nn(C)c1=O [3-006]	5 (Herbicidal rate of 90% or more (almost completely withered))

These compounds were tested on barnyard grass (assay: Test Example 5: herbicidal effect by foliage application, plastic box (Table 20, symbol H)). Conditions: foliage application, 320 g/ha, three weeks after application.
Format: in vivo, barnyard grass (Echinochloa crus-galli)
Procedure, shortened: as §3

Compound	H: barnyard grass, herbicidal effect grade
CCCC(=O)Oc1c(C)nn(C)c(=O)c1-c1c(-c2ccc(F)cc2)sc2cc(F)ccc12 [3-002]	3 (Herbicidal rate of 40% or more and less than 70%)
COc1ccccc1-c1sc2cc(F)ccc2c1-c1c(O)c(C)nn(C)c1=O [3-003]	5 (Herbicidal rate of 90% or more (almost completely withered))
CCOc1ccccc1-c1sc2cc(F)ccc2c1-c1c(O)c(C)nn(C)c1=O [3-006]	5 (Herbicidal rate of 90% or more (almost completely withered))

These compounds were tested on windgrass (assay: Test Example 5: herbicidal effect by foliage application, plastic box (Table 20, symbol L)). Conditions: foliage application, 320 g/ha, three weeks after application.
Format: in vivo, windgrass (Apera spica-venti)
Procedure, shortened: as §3

Compound	L: windgrass, herbicidal effect grade
CCCC(=O)Oc1c(C)nn(C)c(=O)c1-c1c(-c2ccc(F)cc2)sc2cc(F)ccc12 [3-002]	1 (Herbicidal rate of 5% or more and less than 20%)
COc1ccccc1-c1sc2cc(F)ccc2c1-c1c(O)c(C)nn(C)c1=O [3-003]	5 (Herbicidal rate of 90% or more (almost completely withered))
CCOc1ccccc1-c1sc2cc(F)ccc2c1-c1c(O)c(C)nn(C)c1=O [3-006]	5 (Herbicidal rate of 90% or more (almost completely withered))

What follows are compounds tested on oval-leafed pondweed (assay: Test Example 1: herbicidal activity, application before weed generation under submerged conditions (Table 16, symbol C)). Conditions: amount of applied herbicide 320 g/ha.
Format: in vivo, oval-leafed pondweed (Monochoria vaginalis)
Procedure, shortened: (§4)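 Submerged Wagner pots (alluvial soil, 4 cm water) sown with weed seeds and planted with 2.5-leaf rice seedlings; emulsifiable concentrate diluted in water applied to water surface on sowing day. Held in greenhouse at 25-30 °C; injury scored 0-5 by herbicidal rate after three weeks.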

Compound	Herbicidal effect, C: oval-leafed pondweed
CCCC(=O)Oc1c(C)nn(C)c(=O)c1-c1c(-c2ccc(F)cc2)sc2cc(F)ccc12 [3-002]	4 (Herbicidal rate of 70% or more and less than 90%)
COc1ccccc1-c1sc2cc(F)ccc2c1-c1c(O)c(C)nn(C)c1=O [3-003]	5 (Herbicidal rate of 90% or more (almost completely withered))
CCOc1ccccc1-c1sc2cc(F)ccc2c1-c1c(O)c(C)nn(C)c1=O [3-006]	4 (Herbicidal rate of 70% or more and less than 90%)

Each compound was assayed on persian speedwell (assay: Test Example 4: herbicidal effect by soil treatment (Table 19, symbol R)). Conditions: amount of applied herbicide 320 g/ha.
Format: in vivo, Persian speedwell (Veronica persica)
Procedure, shortened: as §1

Compound	herbicidal effect, R: persian speedwell
CCCC(=O)Oc1c(C)nn(C)c(=O)c1-c1c(-c2ccc(F)cc2)sc2cc(F)ccc12 [3-002]	5 (Herbicidal rate of 90% or more (almost completely withered))
COc1ccccc1-c1sc2cc(F)ccc2c1-c1c(O)c(C)nn(C)c1=O [3-003]	4 (Herbicidal rate of 70% or more and less than 90%)
CCOc1ccccc1-c1sc2cc(F)ccc2c1-c1c(O)c(C)nn(C)c1=O [3-006]	5 (Herbicidal rate of 90% or more (almost completely withered))

The compounds below were run on Japanese bulrush (assay: Test Example 1: herbicidal activity, application before weed generation under submerged conditions (Table 16, symbol B)). Conditions: amount of applied herbicide 320 g/ha.
Format: in vivo, Japanese bulrush (Schoenoplectus juncoides)
Procedure, shortened: as §4

Compound	Herbicidal effect, B: Japanese bulrush
CCCC(=O)Oc1c(C)nn(C)c(=O)c1-c1c(-c2ccc(F)cc2)sc2cc(F)ccc12 [3-002]	3 (Herbicidal rate of 40% or more and less than 70%)
COc1ccccc1-c1sc2cc(F)ccc2c1-c1c(O)c(C)nn(C)c1=O [3-003]	4 (Herbicidal rate of 70% or more and less than 90%)
CCOc1ccccc1-c1sc2cc(F)ccc2c1-c1c(O)c(C)nn(C)c1=O [3-006]	5 (Herbicidal rate of 90% or more (almost completely withered))
